From patent US20040101916A1, “Treatment of liver diseases” (priority 2002, published 2004) come the findings set out here.

Experiment [1] concerns GADD45β. As to the kind of experiment: Northern blot of GADD45β expression after SAMe treatment in Hep3B (p53 null). It counts as cell-based, human. An excerpt:
(§1) Expression of GADD45β after SAMe treatment under different p53 backgrounds was examined by Northern blot.

Experiment [2] concerns CCAAT/NF-Y boxes of the GADD45β promoter region. As to the kind of experiment: Gel retardation / super-shift assay, nuclear proteins of CL-48 cells on CCAAT/NF-Y boxes of the GADD45β promoter. It counts as cell-based. As to conditions: CL-48 nuclear proteins. On the procedure: End-labeled oligonucleotides corresponding to the CCAAT/NF-Y boxes of the GADD45β promoter region were incubated with the extracted nuclear proteins, and the binding complexes were then separated on a 6% retardation gel. Protein binding sites on the GADD45β promoter Pα region were identified using unlabeled oligonucleotide competitors and NF-Y antibodies.

Experiment [3] has as its system GADD45β. In words: Northern blot of GADD45β expression after SAMe treatment in HepG2 cells. It counts as cell-based, human. Here is the method: (§2) CL-48 and HepG2 cells were treated with 0, 1.0 mM, and 2.0 mM SAMe. After 72 hours of treatment, Northern blot was performed to analyze the expression of GADD45β, using 18S RNA as an internal loading control.
as §1

Experiment [4] relates to GADD45β. As to the kind of experiment: Northern blot of GADD45β expression after SAMe treatment in CL-48 normal liver cells. It counts as cell-based. As to conditions: CL-48 cells, 0, 1.0 mM, 2.0 mM SAMe, 72 hours. On the procedure:
as §2

For experiment [5], the system named is NF-κB box of the GADD45β promoter region. As to the kind of experiment: Gel retardation assay, nuclear proteins of CL-48 cells on NF-κB box of the GADD45β promoter. As to conditions: CL-48 nuclear proteins, 48 hours after 2.0 mM SAMe or 200 mM alcohol, compared to non-treated control cells. It counts as cell-based. Here is the method: Nuclear proteins were extracted as mentioned above. End-labeled oligonucleotides corresponding to the NF-κB box of the GADD45β promoter region were incubated with the extracted nuclear proteins, and the binding complexes were then separated on a 6% retardation gel.

Another experiment deals with GADD45α. As to conditions: HepG2 clone, Northern blot. Here is the method: (§3) Expression of GADD45α and GADD45β after alcohol treatment was determined by Northern blot in HepG2 clone.
The test system of experiment [6] is GADD45β. As to conditions: HepG2 clone, Northern blot. Here is the method: as §3

For the molecule `C[S+](CC[C@H](N)C(=O)O)C[C@H]1O[C@@H](n2cnc3c(N)ncnc32)[C@H](O)[C@@H]1O` (stereo partly shown) [SAMe, S-Adenosylmethionine], the “expression of GADD45β after SAMe treatment” value is recorded as “failed to be induced” in the experiment on GADD45β [1] and “up-regulated” in the experiment with GADD45β [3] (HepG2 (p53 wild type), different dose ranges). Further, in experiment [2] (48 hours after 2.0 mM SAMe, compared to non-treated controls), the “amount of major protein-binding band on CCAAT/NF-Y oligonucleotides” value is on record as “amount of a major band decreased”. Further, in experiment [2] (SAMe-treated samples), the “super-shift of binding complex with NF-Y antibodies” value is reported as “the binding complex is shifted”. In addition, the “induction of GADD45β expression” value is “the induction remains dose-dependent” in the experiment with GADD45β [3] (HepG2 cells, 0, 1.0 mM, 2.0 mM SAMe, 72 hours); “induced by a low dose of SAMe in CL-48 cells, and the induction reaches plateau at a higher dose of SAMe” in the experiment on GADD45β [4]. The “amount of binding complexes on NF-κB box oligonucleotides” value in experiment [5] was “decreased amount of one binding complex and an increased amount of another binding complex”.

For the molecule `CCO` [alcohol], the “amount of binding complexes on NF-κB box oligonucleotides” value in experiment [5] was “decreased amount of one binding complex and an increased amount of another binding complex”. For the same molecule, the “expression of GADD45α after alcohol treatment” value in the experiment on GADD45α is listed as “increases in a dose-dependent manner”. Besides, the “expression of GADD45β after alcohol treatment” value in the experiment with GADD45β [6] is reported as “does not change”.
